Results as given in patent publication US12486298B2, “Fucosyltransferase specific inhibition using fucose mimetics” (THE FLORIDA INTERNATIONAL UNIVERSITY BOARD OF TRUSTEES, priority 2020, dated 2025).

Legend:
Format in all cases: cell-based
[1] = molecular target: T1, fucosyltransferase IX (FTIX) (Homo sapiens, UniProt Q9Y231); assay: FTIX exofucosylation of mesenchymal stem cells (MSC), Le^x by flow cytometry; conditions: MSCs; same conditions as RPMI-8402 cells
T1 sequence (Q9Y231 1-359): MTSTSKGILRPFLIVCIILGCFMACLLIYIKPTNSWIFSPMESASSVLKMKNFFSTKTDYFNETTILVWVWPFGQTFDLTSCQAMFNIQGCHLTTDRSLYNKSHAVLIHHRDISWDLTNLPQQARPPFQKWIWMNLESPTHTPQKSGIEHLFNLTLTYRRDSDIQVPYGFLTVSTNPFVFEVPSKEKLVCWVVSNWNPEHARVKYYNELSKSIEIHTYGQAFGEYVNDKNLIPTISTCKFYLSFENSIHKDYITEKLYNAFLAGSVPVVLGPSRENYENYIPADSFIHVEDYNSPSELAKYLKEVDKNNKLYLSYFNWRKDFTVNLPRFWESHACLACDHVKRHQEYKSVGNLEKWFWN
Protocol: (§1) A Canto II (BD Biosciences) flow cytometer was utilized for flow cytometry and the data acquired was analyzed using FlowJo Software (Treestar). Cells were stained using antibodies specific to sLe^X (Alexa-Fluor 488 Mouse Anti-Human CD15s (BD Biosciences)), or Le^X (APC anti-human CD15 (SSEA-1) Antibody (BioLegend)).
(§2) Cells of the RPMI-8402 cell line and MSC cell line were treated with either 0.3 ug of fucosyltransferase VI (FTVI), 2.7 ug of fucosyltransferase VII (FTVII), 1.0 ug fucosyltransferase IX (FTIX) or buffer-only at 37° C. for 60 minutes. All reactions contained at 1×10^6 cells/30 ul in HBSS with 10 mM Hepes, 0.1% Human Serum Albumin, and 1.0 mM GDP fucose (GDP-Fuc) (Carbosynth) and the appropriate fucosytransferase. Then, mimetic 1 was added to each of the treatment groups in molar equivalents with respect to GDP-Fuc with each of the fucosytransferases. […]
(§3) Mimetic 1 (FIG. 1) was tested as an inhibitor of FT-mediated exofucosylation on these cells and the extent of fucosylation was monitored using antibodies that detect the creation of the relevant fucosylated epitopes, i.e., sLe^x or Le^x. […]

[2] = molecular target: T2, fucosyltransferase VI (FTVI) (Homo sapiens, UniProt P51993); assay: FTVI exofucosylation of RPMI-8402 cells, sLe^x and Le^x by flow cytometry
T2 construct: purchased R&D systems
T2 sequence (P51993 35-359 limits assumed): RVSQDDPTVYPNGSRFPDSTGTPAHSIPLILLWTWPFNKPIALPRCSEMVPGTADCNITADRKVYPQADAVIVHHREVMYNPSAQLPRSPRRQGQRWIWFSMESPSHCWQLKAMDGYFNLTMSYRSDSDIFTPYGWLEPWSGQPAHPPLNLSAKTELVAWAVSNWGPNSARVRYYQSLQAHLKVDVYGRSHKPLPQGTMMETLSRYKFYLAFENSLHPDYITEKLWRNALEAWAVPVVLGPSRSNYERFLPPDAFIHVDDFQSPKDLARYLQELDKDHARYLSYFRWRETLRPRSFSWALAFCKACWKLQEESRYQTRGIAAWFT
Protocol: A titration of GDP-Fucose was carried out to determine the maximum mean fluorescent intensity (MFI) of sLe^X and Le^X via flow cytometry for downstream inhibition experiments. Generally, 1×10^6 cells were used in each FTVI exofucosylation reaction and all reactions were carried out in triplicate. Cells were then stained with either Alexa-Fluor 488 Mouse Anti-Human CD15s (BD Biosciences), or APC anti-human CD15 (SSEA-1) Antibody (BioLegend). Cells were then acquired on a Canto II (BD Biosciences) flow cytometer and analylized using Flowjo software (Treestar). FTVI was purchased from R&D systems.
as §1
Cells of the RPMI-8402 cell line and MSC cell line were treated with either 0.3 ug of fucosyltransferase VI (FTVI), 2.7 ug of fucosyltransferase VII (FTVII), 1.0 ug fucosyltransferase IX (FTIX) or buffer-only at 37° C. for 60 minutes. All reactions contained at 1×10^6 cells/30 ul in HBSS with 10 mM Hepes, 0.1% Human Serum Albumin, and 1.0 mM GDP fucose (GDP-Fuc) (Carbosynth) and the appropriate fucosytransferase. Then, mimetic 1 was added to each of the treatment groups in molar equivalents with respect to GDP-Fuc with each of the fucosytransferases. The treatment groups were as follows: 1:1 GDP-Fuc to mimetic 1 (i.e., 1.0 mM GDP-Fuc and 1.0 mM mimetic), 1:2 GDP-Fuc to mimetic 1 (i.e., 1.0 mM GDP-Fuc and 2.0 mM mimetic), or preincubated in presence of FT with a 2.0 mM solution of the mimetic 1 for 45 minutes followed by addition of a 1.0 mM solution of GDP-Fuc for 1 hour. Concentrations of the various FTs were utilized that would maximize the MFI to allow the detection of the efficacy of mimetic 1 to inhibit the various enzymes.
Exofucosylation is a technique whereby a pertinent FT together with GDP-Fuc is placed in a cell suspension to stereoselectively install fucose on pertinent acceptor cell surface glycan(s). For the case of α-1,3-FTs, this approach provides the ability to pinpoint the effect(s) of mimetic addition on creation of fucosylated glycans Le^x and sLe^x, while keeping the rest of the cell's biological functions and its viability intact. Specifically, this study focused on three α-1,3-FTs that can create sLe^x and Le^x determinants: FTVII, FTIX, and FTVI. […]
as §3

[3] = molecular target: T2, fucosyltransferase VI (FTVI); assay: FTVI exofucosylation of mesenchymal stem cells (MSC), sLe^x and Le^x by flow cytometry; conditions: MSCs; 1.0 mM GDP-Fuc with 1.0 mM or 2.0 mM mimetic 1
Protocol: as §1, §2, §3

[4] = RPMI-8402 cells, 1.0 mM GDP-Fuc with 1.0 mM or 2.0 mM mimetic 1

## CC1OC2Oc3ccc(CC(=O)O)cc3SC2C(O)C1O (stereo not shown) [mimetic 1]
[1]
  inhibition of FTIX production of Le^x: did not inhibit FTIX production of Le^x
[2]; [4]
  inhibition of FTVI production of Le^x: clearly inhibited
  inhibition of FTVI production of sLe^x: markedly diminished
[2]; pre-incubation with 2.0 mM mimetic 1 prior to addition of GDP-Fuc
  inhibition of FTVI-mediated exofucosylation after pre-incubation: inhibited more completely
[2]; titration of mimetic 1, 1.0 mM GDP-Fuc, RPMI-8402 cells, bell-shaped curve
  concentration of highest inhibition against FTVI: 2.0 mM
[3]
  inhibition of FTVI production of Le^x: clearly inhibited
  inhibition of FTVI production of sLe^x: markedly diminished
